Experimental data taken from ChEMBL document CHEMBL5506074, “Discovery and Optimization of Tetrahydroisoquinoline Derivatives To Enhance Lysosome Biogenesis as Preclinical Candidates for the Treatment of Alzheimer's Disease” (J Med Chem, 2024).
The source made the active and inactive calls. The rule behind the calls is not given here.

Tests used:
[1] = Induction of TFEB nuclear translocation in human HeLa cells expressing EGFP at 30 uM measured at 3 hrs by fluorescence microscopic analysis; assay type: functional
[2] = AUC (0 to t) in ICR mouse at 20 mg/kg, po measured upto 24 hrs by LC-MS/MS analysis; assay type: ADME, organism-based; conditions: in vivo
[3] = AUC (0 to t) in ICR mouse at 5 mg/kg, iv measured upto 24 hrs by LC-MS/MS analysis; assay type: ADME, organism-based; conditions: in vivo
[4] = Clearance in ICR mouse at 5 mg/kg, iv measured upto 24 hrs by LC-MS/MS analysis; assay type: ADME, organism-based; conditions: in vivo
[5] = Bioavailability in ICR mouse at 5 mg/kg, ip measured upto 24 hrs by LC-MS/MS analysis; assay type: ADME, organism-based; conditions: in vivo
[6] = Oral bioavailability in ICR mouse at 20 mg/kg measured upto 24 hrs by LC-MS/MS analysis; assay type: ADME, organism-based; conditions: in vivo
[7] = Acute toxicity in C57BL/6J mouse assessed as brain damage at 50 mg/kg, ip measured upto 14 days by H and E staining based analysis; assay type: organism-based; conditions: in vivo, 336 h, time < 14 day
[8] = Acute toxicity in C57BL/6J mouse assessed as kidney damage at 50 mg/kg, ip measured upto 14 days H and E staining based analysis; assay type: organism-based; conditions: in vivo, 336 h, time < 14 day
[9] = Acute toxicity in C57BL/6J mouse assessed as heart damage at 50 mg/kg, ip measured upto 14 days H and E staining based analysis; assay type: organism-based; conditions: in vivo, 336 h, time < 14 day
HeLa [10] = assay: Induction of lysosome biogenesis in human HeLa cells assessed as increase in number of acidified lysosomes at 10 uM incubated for 24 hrs by LysiTracker red staining based flow cytometry analysis; assay type: functional, cell-based
HeLa [11] = assay: Upregulation of HEXA mRNA expression in human HeLa cells at 10 uM incubated for 24 hrs by qRT-PCR analysis; assay type: functional, cell-based
HeLa [12] = assay: Upregulation of LC3B mRNA expression in human HeLa cells at 10 uM incubated for 24 hrs by qRT-PCR analysis; assay type: functional, cell-based
HeLa [13] = assay: Upregulation of OPTN mRNA expression in human HeLa cells at 10 uM incubated for 24 hrs by qRT-PCR analysis; assay type: functional, cell-based
HeLa [14] = assay: Upregulation of p62 mRNA expression in human HeLa cells at 10 uM incubated for 24 hrs by qRT-PCR analysis; assay type: functional, cell-based
HeLa [15] = assay: Upregulation of […] mRNA expression in human HeLa cells at 10 uM incubated for 24 hrs by qRT-PCR analysis; assay type: functional, cell-based
HeLa [16] = assay: Upregulation of GLA mRNA expression in human HeLa cells at 10 uM incubated for 24 hrs by qRT-PCR analysis; assay type: functional, cell-based
HeLa [17] = assay: Upregulation of Atg16L1 mRNA expression in human HeLa cells at 10 uM incubated for 24 hrs by qRT-PCR analysis; assay type: functional, cell-based
HeLa [18] = assay: Upregulation of LAMP1 mRNA expression in TFEB knockout human HeLa cells at 10 uM incubated for 24 hrs by qRT-PCR analysis; assay type: functional, cell-based
HeLa [19] = assay: Upregulation of CTSF mRNA expression in TFEB knockout human HeLa cells at 10 uM incubated for 24 hrs by qRT-PCR analysis; assay type: functional, cell-based
HeLa [20] = assay: Upregulation of […] mRNA expression in TFEB knockout human HeLa cells at 10 uM incubated for 24 hrs by qRT-PCR analysis; assay type: functional, cell-based
HeLa [21] = assay: Upregulation of GLA mRNA expression in TFEB knockout human HeLa cells at 10 uM incubated for 24 hrs by qRT-PCR analysis; assay type: functional, cell-based
[22] = system: Primary neocortical neuron; assay: Cytotoxicity against mouse Primary neocortical neuron cells assessed as effect on cell viability at 10 uM incubated for 24 hrs; assay type: functional, cell-based
HeLa [23] = assay: Induction of cell cycle arrest in human HeLa cells assessed as effect on CDK7 level at 10 uM incubated for 12 hrs by qRT-PCR analysis; assay type: functional, cell-based
HeLa [24] = assay: Induction of cell cycle arrest in human HeLa cells assessed as effect on p21 level at 10 uM incubated for 12 hrs by qRT-PCR analysis; assay type: functional, cell-based
[25] = biological target: T1, Sodium-dependent dopamine transporter (Homo sapiens, UniProt Q01959); assay: Displacement of [3H] dopamine from DAT in HEK293 cells incubated for 1 hr by topcount plate reader analysis; assay type: cell-based
T1 sequence (Q01959 whole entry): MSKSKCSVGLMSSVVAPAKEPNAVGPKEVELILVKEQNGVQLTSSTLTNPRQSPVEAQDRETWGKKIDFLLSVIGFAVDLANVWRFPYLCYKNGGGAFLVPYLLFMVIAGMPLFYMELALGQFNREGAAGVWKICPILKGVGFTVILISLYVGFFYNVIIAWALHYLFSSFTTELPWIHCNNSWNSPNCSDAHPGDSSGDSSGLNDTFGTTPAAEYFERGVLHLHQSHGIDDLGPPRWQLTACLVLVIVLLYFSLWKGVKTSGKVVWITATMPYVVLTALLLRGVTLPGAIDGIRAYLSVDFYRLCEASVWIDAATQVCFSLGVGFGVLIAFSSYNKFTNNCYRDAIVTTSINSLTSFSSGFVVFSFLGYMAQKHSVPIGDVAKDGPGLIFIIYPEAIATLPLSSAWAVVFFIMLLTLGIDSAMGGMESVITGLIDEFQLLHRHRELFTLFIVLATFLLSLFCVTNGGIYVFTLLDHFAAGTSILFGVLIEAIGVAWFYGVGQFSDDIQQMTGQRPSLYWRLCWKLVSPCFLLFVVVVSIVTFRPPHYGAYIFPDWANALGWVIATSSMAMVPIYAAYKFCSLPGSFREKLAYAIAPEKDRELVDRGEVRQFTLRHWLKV

[26] = biological target: T1, Sodium-dependent dopamine transporter; assay: Displacement of [3H] dopamine from DAT in HEK293 cells assessed as inhibition constant incubated for 1 hr by topcount plate reader analysis; assay type: cell-based
[27] = biological target: T1, Sodium-dependent dopamine transporter; assay: Displacement of [3H] dopamine from DAT in HEK293 cells incubated for 15 mins by microbeta analysis; assay type: cell-based
[28] = Toxicity in APP/PS1 mouse model assessed as change in body weight at 10 mg/kg, ip administered every other day for 30 days; assay type: organism-based; conditions: in vivo, 720 h, time 30 day
Mus musculus [29] = assay: Anti-alzheimer activity against APP/PS1 mouse model assessed as reduction in amyloid beta plaque in hippocampus at 10 mg/kg, ip administered for 30 days; assay type: functional; set-up: scale not given: the % may be the effect or the level left; conditions: time 30 day
Mus musculus [30] = assay: Anti-alzheimer activity against APP/PS1 mouse model assessed as reduction in amyloid beta 42 plaque in hippocampus at 10 mg/kg, ip administered for 30 days; assay type: functional; set-up: scale not given: the % may be the effect or the level left; conditions: time 30 day
Mus musculus [31] = assay: Anti-alzheimer activity against APP/PS1 mouse model assessed as upregulation of ATG16L1 mRNA expression in brain at 10 mg/kg, ip administered for 30 days; assay type: functional, organism-based; conditions: time 30.0 day

Q: With `c1ccc2c(CCC3NCCc4cc5c(cc43)OCO5)c[nH]c2c1` (stereo not drawn) as the compound, how does the Activity [1] read?
A: 97%

Q: And the AUC(0-t) at 24 h ([2]; ICR)?
A: 17100 ng·h/mL

Q: And the AUC(0-t) at 24 h ([3]; ICR)?
A: 3310 ng·h/mL

Q: What about the clearance [4] of the same compound?
A: 30.3 mL/min/kg

Q: What about the bioavailability [5] of the same compound?
A: 115%

Q: What about the bioavailability ([6]; ICR) of the same compound?
A: 76.4%

Q: What about the Activity [7] of the same compound?
A: Non-Toxic

Q: And the Activity [8]?
A: Non-Toxic

Q: What about the Activity [9] of the same compound?
A: Non-Toxic

Q: What about the Activity (HeLa [10]) of the same compound?
A: Active

Q: What about the Activity (HeLa [11]) of the same compound?
A: Active

Q: And the Activity (HeLa [12])?
A: Active

Q: What about the Activity (HeLa [13]) of the same compound?
A: Active

Q: And the Activity (HeLa [14])?
A: Active

Q: And the Activity (HeLa [15])?
A: Active

Q: What about the Activity (HeLa [16]) of the same compound?
A: Active

Q: And the Activity (HeLa [17])?
A: Active

Q: And the Activity (HeLa [18])?
A: Active

Q: What about the Activity (HeLa [19]) of the same compound?
A: Active

Q: What about the Activity (HeLa [20]) of the same compound?
A: Active

Q: What about the Activity (HeLa [21]) of the same compound?
A: Active

Q: What about the Activity [22] of the same compound?
A: Active

Q: And the Activity (HeLa [23])?
A: inactive

Q: And the Activity (HeLa [24])?
A: inactive

Q: And the IC50 [25]?
A: 2150 nM

Q: And the Ki [26]?
A: 680 nM

Q: What about the IC50 [27] of the same compound?
A: 6.34 µM

Q: And the Activity [28]?
A: Non-Toxic

Q: What about the Activity (Mus musculus [29]) of the same compound?
A: 67.5%

Q: And the Activity (Mus musculus [30])?
A: 43.6%

Q: And the Activity (Mus musculus [31])?
A: Active

Q: With `Fc1ccc2[nH]cc(CCC3c4cc5c(cc4CCN3CC3CCOCC3)OCO5)c2c1` (stereo not drawn) as the compound, how does the Activity [1] read?
A: 94%

Q: And the AUCt ([2]; po, 20 mg/kg, 24 h)?
A: 17.4 ng·h/mL

Q: And the AUCt ([3]; iv, 5 mg/kg, 24 h)?
A: 409 ng·h/mL

Q: And the clearance [4]?
A: 204 mL/min/kg

Q: And the bioavailability [5]?
A: 25.7%

Q: And the F ([6]; po, 20 mg/kg, 24 h)?
A: 6.73%

Q: What about the Activity [7] of the same compound?
A: Non-Toxic

Q: And the Activity [8]?
A: Non-Toxic

Q: And the Activity [9]?
A: Non-Toxic

Q: And the Activity (HeLa [11])?
A: Active

Q: And the Activity (HeLa [12])?
A: Active

Q: And the Activity (HeLa [13])?
A: Active

Q: What about the Activity (HeLa [14]) of the same compound?
A: Active

Q: What about the Activity (HeLa [15]) of the same compound?
A: Active

Q: What about the Activity (HeLa [16]) of the same compound?
A: Active

Q: What about the Activity (HeLa [17]) of the same compound?
A: Active

Q: What about the Activity (HeLa [18]) of the same compound?
A: Active

Q: And the Activity (HeLa [19])?
A: Active

Q: What about the Activity (HeLa [20]) of the same compound?
A: Active

Q: What about the Activity (HeLa [21]) of the same compound?
A: Active

Q: And the Activity [22]?
A: Active

Q: What about the Activity (HeLa [23]) of the same compound?
A: inactive

Q: And the Activity (HeLa [24])?
A: inactive

Q: What about the Activity [28] of the same compound?
A: Non-Toxic

Q: What about the Activity (Mus musculus [29]) of the same compound?
A: 69.8%

Q: What about the Activity (Mus musculus [30]) of the same compound?
A: 25.4%

Q: What about the Activity (Mus musculus [31]) of the same compound?
A: Active
